Test system: squalene synthase
Test: Squalene synthase assay (cell lysate)
Assay type: biochemical
Conditions: 4 nM to 0.2 mM
Method: Squalene Synthase Assay--The cell lysate was prepared immediately prior to running the assay. Cells were washed three times with PBS, once with a 0.1M potassium phosphate buffer (pH 7.4) containing 5 mM MgCl2 and 5 mM CHAPS, and once with a 0.01M potassium phosphate buffer (pH 7.4) containing 0.5 mM MgCl2 and 0.5 mM CHAPS. Cells were scraped with a rubber policeman in approximately 0.5 ml of the final wash buffer and dounce homogenized with 20 strokes, while on ice. An aliquot of cell lysate was examined with a light microscope to ensure that essentially all cells in the sample were lysed. An additional aliquot of cell lysate was saved for protein determination. […] The squalene was isolated by TLC and the radioactivity of the squalene bands was measured as previously described. […]
Since both farnesyl compounds have a structural similarity to farnesyl pyrophosphate, the substrate for squalene synthase, and some of the farnesyl compounds that have been tested function as a competitive inhibitor of squalene synthase, the effects of farnesyl acetate on in vitro squalene synthase activity was measured. As a positive control, squalene synthase activity was also measured in tile presence of zaragozic acid A, a potent competitive inhibitor of the enzyme. […]

CC(=O)OCC=C(C)CCC=C(C)CCC=C(C)C [farnesyl acetate]
effect on in vitro squalene synthase activity: negligible effect

— US5475029A, “Farnesyl compounds as cholesterol lowering agents” (The Board of Trustees of the Leland Stanford Junior …, priority 1993, dated 1995)
